Drawing on PubChem BioAssay (NCI), this text covers GI50 and TGI for 22 molecules.

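Values below derive from 48-hour exposures of cells grown in 96-well plates, with endpoints linearly interpolated between the two concentrations bracketing the appropriate inhibition level. GI50 is the concentration that inhibits growth by half. TGI: total growth inhibition.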 Where a SMILES comes first, the peptide text is derived from it. The star is where a group is joined. Boc = CC(C)(C)OC(=O)*

The first test deals with IGROV1 ovarian. Kind of test: NCI anticancer screen, dose series, 48 h.
Regarding `COc1cc2c(cc1-c1c(C)noc1C)cc(C)c(=O)n2Cc1ccccn1`, the GI50 is 1.2 µM and the TGI is above 100 µM.

In the case of `N#CC(C#N)=CNC(=S)c1ccncc1`, the TGI was above 100 µM.

In the case of `O=c1cc(N=P(c2ccccc2)(c2ccccc2)c2ccccc2)n(-c2ccccc2)c(=O)n1-c1ccccc1`, the TGI was found to be 58.8 µM.

On to `O=C(NCCCN(CCCCN(CCCNC(=O)C(F)(F)F)Cc1ccccc1)Cc1ccccc1)C(F)(F)F`, for which the TGI was 26.2 µM.

Consider `COc1ccc(C2(CC(C)O)SCCCS2)cc1` (configuration not stated), for which the TGI was above 100 µM.

Take `Clc1ccc(-c2nn3c(-c4ccncc4)nnc3s2)cc1`: the TGI was above 100 µM.

Regarding `Cc1ccccc1C(O)(c1nccn1C)c1nccn1C`, the TGI was above 100 µM.

For the molecule `Oc1ccccc1/C=N/c1nc2cc3sc(/N=C/c4ccccc4O)nc3cc2s1`, the TGI is above 100 µM.

For the molecule `CCN(CC)CCOc1ccc(N2C(=O)c3cc(OC)c(OC)cc3C2=O)cc1`, the TGI was above 100 µM.

As for `CCOC(=N)n1c(=O)n(C2=NCCN2)c2ccccc21`, the TGI is above 100 µM.

Take `O=C(NCCN1CCOCC1)c1ccc2cc(C(=O)N3CC(CCl)c4ccc([N+](=O)[O-])cc43)[nH]c2c1` (configuration not stated): the TGI was above 100 µM.

On to `O=c1c2cc3c(cc2[nH]c2ncccc12)OCO3`, for which the TGI was above 10 µM.

On to `Cc1csc(-c2cn(C)c3c2C(=O)C(N)=CC3=O)n1`, for which the TGI was determined as 13.4 µM.

`Nc1c(-c2cccc3ccccc23)c2ccc([N+](=O)[O-])cc2c(=O)n1-c1nc2ccccc2s1` returned a TGI above 100 µM.

Molecule `CC1CC[C@@]2(OC1)OC1C[C@H]3[C@@H]4CC[C@H]5CC(OC6OC(CO)C(OC7OC(CO)C(O)C(O)C7OC7OC(CO)C(O)C(O)C7O)C(O)C6O)CCC5(C)[C@H]4CCC3(C)C1[C@@H]2C` (some centres not stated) registered a TGI of 2.15 µM.

The molecule `O=c1c2ccccc2nc2[nH][nH]c(=S)n12` returned a TGI above 100 µM.

Turning to `CC(C)(C)OC(=O)NCC(=O)NCC(=O)NCC(=O)NCC(=O)O` (Boc-GGGG-OH), the TGI was above 100 µM.

Regarding `COc1ccc(CC(O)CN2CCOCC2)cc1` (configuration not stated), the TGI is above 100 µM.

With `CN(C)CCCN1C(=S)N(CCCN(C)C)c2c3cc(O)ccc3nc3c([N+](=O)[O-])ccc1c23`, the TGI amounted to 7 µM.

With `COc1cc(C2SCC(=O)N2c2ccc(NC(=O)c3ccc(N4C(=O)CSC4c4cc(OC)c(OC)c(OC)c4)cc3)cc2)cc(OC)c1OC` (configuration not stated), the TGI is above 100 µM.

As to `N#C/C(=C\c1cc(Br)c(O)c(Br)c1)c1cccnc1`, the TGI is above 100 µM.

In turn, `CN(C)Cc1cc(C(=O)/C=C/c2ccc(O)cc2)cc(CN(C)C)c1O` came in with a TGI above 100 µM.

The next test has as its system M14 melanoma. The test is described as follows: NCI anticancer screen, dose series, 48 h.
For the molecule `COc1cc2c(cc1-c1c(C)noc1C)cc(C)c(=O)n2Cc1ccccn1`, the GI50 is 0.797 µM and the TGI is above 100 µM.

`N#CC(C#N)=CNC(=S)c1ccncc1` gave a TGI above 100 µM.

Regarding `O=c1cc(N=P(c2ccccc2)(c2ccccc2)c2ccccc2)n(-c2ccccc2)c(=O)n1-c1ccccc1`, the TGI was above 100 µM.

As for `O=C(NCCCN(CCCCN(CCCNC(=O)C(F)(F)F)Cc1ccccc1)Cc1ccccc1)C(F)(F)F`, the TGI came to 12.1 µM.

In turn, `COc1ccc(C2(CC(C)O)SCCCS2)cc1` (configuration not stated) came in with a TGI above 100 µM.

For `Clc1ccc(-c2nn3c(-c4ccncc4)nnc3s2)cc1`, the TGI is above 100 µM.

Take `Cc1ccccc1C(O)(c1nccn1C)c1nccn1C`: the TGI was above 100 µM.

For the molecule `Oc1ccccc1/C=N/c1nc2cc3sc(/N=C/c4ccccc4O)nc3cc2s1`, the TGI is above 100 µM.

`CCN(CC)CCOc1ccc(N2C(=O)c3cc(OC)c(OC)cc3C2=O)cc1`: the TGI was above 100 µM.

In turn, `CCOC(=N)n1c(=O)n(C2=NCCN2)c2ccccc21` displayed a TGI above 100 µM.

`O=C(NCCN1CCOCC1)c1ccc2cc(C(=O)N3CC(CCl)c4ccc([N+](=O)[O-])cc43)[nH]c2c1` (configuration not stated) showed a TGI above 100 µM.

For `O=c1c2cc3c(cc2[nH]c2ncccc12)OCO3`, the TGI was above 10 µM.

Turning to `Cc1csc(-c2cn(C)c3c2C(=O)C(N)=CC3=O)n1`, the TGI is above 47.4 µM.

In turn, `Nc1c(-c2cccc3ccccc23)c2ccc([N+](=O)[O-])cc2c(=O)n1-c1nc2ccccc2s1` yielded a TGI above 38.9 µM.

Consider `CC1CC[C@@]2(OC1)OC1C[C@H]3[C@@H]4CC[C@H]5CC(OC6OC(CO)C(OC7OC(CO)C(O)C(O)C7OC7OC(CO)C(O)C(O)C7O)C(O)C6O)CCC5(C)[C@H]4CCC3(C)C1[C@@H]2C` (some centres not stated), for which the TGI stood at 10.4 µM.

With `O=c1c2ccccc2nc2[nH][nH]c(=S)n12`, the TGI was above 100 µM.

`CC(C)(C)OC(=O)NCC(=O)NCC(=O)NCC(=O)NCC(=O)O` (Boc-GGGG-OH) came in with a TGI above 100 µM.

For `COc1ccc(CC(O)CN2CCOCC2)cc1` (configuration not stated), the TGI is above 100 µM.

In the case of `CN(C)CCCN1C(=S)N(CCCN(C)C)c2c3cc(O)ccc3nc3c([N+](=O)[O-])ccc1c23`, the TGI stood at 22.4 µM.

In turn, `COc1cc(C2SCC(=O)N2c2ccc(NC(=O)c3ccc(N4C(=O)CSC4c4cc(OC)c(OC)c(OC)c4)cc3)cc2)cc(OC)c1OC` (configuration not stated) registered a TGI above 100 µM.

In turn, `N#C/C(=C\c1cc(Br)c(O)c(Br)c1)c1cccnc1` returned a TGI above 100 µM.

The molecule `CN(C)Cc1cc(C(=O)/C=C/c2ccc(O)cc2)cc(CN(C)C)c1O` had a TGI above 100 µM.

The next test concerns NCI-H460 lung. The test is described as follows: NCI anticancer screen, dose series, 48 h.
As to `COc1cc2c(cc1-c1c(C)noc1C)cc(C)c(=O)n2Cc1ccccn1`, the GI50 is 6 µM and the TGI is above 100 µM.

For the molecule `N#CC(C#N)=CNC(=S)c1ccncc1`, the TGI was above 100 µM.

Consider `O=c1cc(N=P(c2ccccc2)(c2ccccc2)c2ccccc2)n(-c2ccccc2)c(=O)n1-c1ccccc1`, for which the TGI is 22 µM.

Turning to `O=C(NCCCN(CCCCN(CCCNC(=O)C(F)(F)F)Cc1ccccc1)Cc1ccccc1)C(F)(F)F`, the TGI was 22.1 µM.

For the molecule `COc1ccc(C2(CC(C)O)SCCCS2)cc1` (configuration not stated), the TGI is above 100 µM.

`Clc1ccc(-c2nn3c(-c4ccncc4)nnc3s2)cc1` yielded a TGI above 100 µM.

`Cc1ccccc1C(O)(c1nccn1C)c1nccn1C` came in with a TGI above 100 µM.

`Oc1ccccc1/C=N/c1nc2cc3sc(/N=C/c4ccccc4O)nc3cc2s1`: the TGI is above 100 µM.

Molecule `CCN(CC)CCOc1ccc(N2C(=O)c3cc(OC)c(OC)cc3C2=O)cc1` had a TGI above 100 µM.

`CCOC(=N)n1c(=O)n(C2=NCCN2)c2ccccc21` had a TGI above 100 µM.
